Source: patent US20090318413A1, “BRONCHIAL SMOOTH MUSCLE REMODELING INVOLVES CALCIUM-DEPENDENT ENHANCED MITOCHONDRIAL BIOGENESIS IN ASTHMA” (UNIVERSITE VICTOR SEGALEN BORDEAUX 2, priority 2008, published 2009)
Like-named read-outs stand apart in the source and are kept apart here.

Experiments:
BSM cells [1] = assay: Microspectrofluorimetry of intracellular calcium (indo-1) after acetylcholine stimulation; assay type: cell-based, human; settings: asthmatic BSM cells; 10^-5 M acetylcholine; 1 μM D600 with 2 mM Ca2+, or 400 μM EGTA without extracellular calcium
Method: Change in growth-arrested BSM cell intracellular calcium concentration ([Ca^2+]i), was assessed using the Ca^2+-sensitive probe indo-1, as previously described (Berger et al., J. Appl. Physiol. 91:995-1003 (2001); Trian et al., Am. J. Respir. Cell Mol. Biol. 34:49-55 (2006)). In brief, cells were loaded with indo-1 (Calbiochem) and mounted in a perfusion chamber continuously perfused with phosphate salt solution containing either 2 mM Ca2+ in the absence or presence of 1 μM D600, or 400 μM EGTA (Sigma-Aldrich) in the absence of extracellular calcium. BSM cells were stimulated with 10^−5 M acetylcholine or histamine (both from Sigma-Aldrich). Individual cell calcium levels were monitored continuously. Results were expressed as the mean±the SEM of resting or peak of [Ca^2+]i rises (in […]) and area under the curves (nanomoles/second). Experiments were carried out at room temperature (22-25° C.).

CaMK-IV = assay: Western blot of phosphorylated CaMK-IV in BSM cells; assay type: cell-based, human; settings: asthmatic BSM cells; 1 μM D600
Method: (§1) To analyze the mitochondrial ultrastructure, BSM cells were growth arrested, as described in the previous section, for 6 d. Three million cells were then collected and centrifuged at 400 g for 5 min. Cell pellets were fixed in 2.5% glutaraldehyde for 2 h at 4° C. and processed for electron microscopy, as described in the previous section. Growth curves were built to assess the role of mitochondria in cell proliferation. For this purpose, 25,000 BSM cells were plated on 75-cm^2 flasks and cultured with 10% FCS-DME containing either 4.5 g/liter galactose or 4.5 g/liter glucose. […] For these latter experiments, medium was changed every 24 h, and, at the indicated time, BSM cells were harvested by trypsinization and counted in triplicate using a cytometer.
(§2) Whole lysates from BSM cells were collected using 1% Triton X-100 lysis buffer in the presence of 2 mM Na orthovanadate, 1 mM EDTA, 50 μg/ml aprotinin, 100 μM leupeptin, 1 mM 1.4 Dithio-DL-Treitol, and 1 mM amino-ethyl-benzenesulfonyl fluoride hydrochloride (all from Sigma-Aldrich). […] Blot images were acquired using BioCaptMW (Thermo Fisher Scientific), and band densities were quantified using ImageJ software.

PGC-1α = assay: Western blot of PGC-1α in BSM cells; assay type: cell-based, human; settings: asthmatic BSM cells; 1 μM D600 for 48 h
Method: as §1, §2

NRF-1 = assay: Western blot of NRF-1 in BSM cells; assay type: cell-based, human; settings: asthmatic BSM cells; 1 μM D600 for 48 h
Method: as §1, §2

mtTFA = assay: Western blot of mtTFA in BSM cells; assay type: cell-based, human; settings: asthmatic BSM cells; 1 μM D600 for 48 h
Method: as §1, §2

porin = assay: Mitochondrial mass by porin content (Western blot) in BSM cells; assay type: cell-based, human
Method: (§3) To analyze the mitochondrial ultrastructure, BSM cells were growth arrested, as described in the previous section, for 6 d. Three million cells were then collected and centrifuged at 400 g for 5 min. Cell pellets were fixed in 2.5% glutaraldehyde for 2 h at 4° C. and processed for electron microscopy, as described in the previous section. Growth curves were built to assess the role of mitochondria in cell proliferation. For this purpose, 25,000 BSM cells were plated on 75-cm^2 flasks and cultured with 10% FCS-DME containing either 4.5 g/liter galactose or 4.5 g/liter glucose. In another set of experiments, we investigated the effects of 50 μg/liter ethidium bromide (Qbiogene) for up to 33 d, 1.3 g/liter cyclic cGMP (3 mM; Sigma-Aldrich) for up to 6 d, or […] D600, i.e., methoxyverapamil or gallopamil (1 μM; Sigma-Aldrich) for up to 2 d in 10% FCS-DME containing 4.5 g/liter glucose. For these latter experiments, medium was changed every 24 h, and, at the indicated time, BSM cells were harvested by trypsinization and counted in triplicate using a cytometer.
Whole lysates from BSM cells were collected using 1% Triton X-100 lysis buffer in the presence of 2 mM Na orthovanadate, 1 mM EDTA, 50 μg/ml aprotinin, 100 μM leupeptin, 1 mM 1.4 Dithio-DL-Treitol, and 1 mM amino-ethyl-benzenesulfonyl fluoride hydrochloride (all from Sigma-Aldrich). Cellular extracts were reduced with mercaptoethanol, subjected to electrophoresis on a 10% acrylamide reducing gel, and transferred to PVDF membranes (Immobilon TM-P; Millipore). The immunoblots were then developed using mouse anti-human porin (MitoSciences), mouse anti-human α-actin (Sigma-Aldrich), rabbit anti-human phospho-CaMK-IV, rabbit anti-human PGC-1α, rabbit anti-human NRF-1, or rabbit anti-human mitochondrial transcription factor A (mtTFA; all purchased from Santa Cruz Biotechnology, Inc.) for 14 h at 4° C. For amplification, biotinylated goat secondary antibody anti-mouse IgG (Bio-Rad Laboratories) or anti-rabbit IgG (Santa Cruz Biotechnology, Inc.) for 2 h at room temperature and a streptavidin-biotinylated horseradish peroxidase complex (Dako) were used. […] Blot images were acquired using BioCaptMW (Thermo Fisher Scientific), and band densities were quantified using ImageJ software.

BSM cells [2] = assay: BrdU incorporation (DNA synthesis) in BSM cells; assay type: cell-based, human; settings: 10% FCS-DME glucose, ethidium bromide or cyclic GMP 24 h
Method: Growth-arrested BSM cells were cultured in 96-well plates for 24 h and stimulated with 10% FCS-DME containing glucose, galactose, ethidium bromide, or cyclic GMP for 24 h or containing D600 for 48 h, as described above. Control BSM cells remained in serum-deprived DME. DNA synthesis was measured using the BrdU kit according to the manufacturer's instructions (Roche). In brief, BSM cells were incubated with 10 μM BrdU for 2 h at 37° C. and fixed for 20 min at room temperature. Cells were denaturized for 30 min and incubated with the anti-BrdU antibody for 2 h at room temperature. Absorbance was measured at 370 nm in a microplate reader in triplicate. Results are expressed as a normalized ratio of BrdU incorporation, i.e. absorbance for test condition divided by absorbance for control serum-deprived condition.

BSM cells [3] = assay: BSM cell growth curves (cell counting), doubling time and proliferation; assay type: cell-based, human; settings: for doubling time of cell growth: glucose medium + 50 μg/liter ethidium bromide or 3 mM cyclic GMP; for proliferation of BSM cells: glucose medium + ethidium bromide or cyclic GMP
Method: as §3

U937, L6, and PC12 = settings: various cell lines, including U937, L6, and PC12; cited from earlier work
[4] = system: vascular smooth muscle cells; settings: mesangial cells and various fibroblasts; cited from earlier work
endothelial cells = settings: cited from earlier work

5-[2-(3,4-dimémethoxyphenyl)ethyl-methylamino]-2-propan-2-yl-2-(3,4,5-triméthoxyphenyl)pentanenitrile hydrochloride [D600]
abnormal calcium response (area under the curve) to acetylcholine (BSM cells [1]): abolished | activation (phosphorylation) of CaMK-IV (CaMK-IV): inhibited | activation of mitochondrial biogenesis through PGC-α (PGC-1α): inhibited | activation of mitochondrial biogenesis through NRF-1 (NRF-1): inhibited | activation of mitochondrial biogenesis through mtTFA (mtTFA): inhibited | mitochondrial content (amount of porin) (porin): blocks | BrdU incorporation (BSM cells [2]; asthmatic BSM cells, 1 μM D600 48 h): significantly inhibited

O=C(O)CN(CCOCCOCCN(CC(=O)O)CC(=O)O)CC(=O)O [EGTA]
abnormal calcium response (area under the curve) to acetylcholine (BSM cells [1]): abolished

Nc1nc2c(ncn2[C@@H]2O[C@@H]3COP(=O)(O)O[C@H]3[C@H]2O)c(=O)[nH]1 [cyclic GMP]
mitochondrial content (amount of porin) (porin; COPD BSM cells, ethidium bromide or cyclic GMP 6 d): increased | mitochondrial content (amount of porin) (porin; asthmatic BSM cells, ethidium bromide or cyclic GMP 6 d, 1 μM D600 48 h): failed to additionally increase | mitochondrial content (amount of porin) (porin; control BSM cells, ethidium bromide or cyclic GMP 6 d): increased | doubling time of cell growth (BSM cells [3]; COPD BSM cells): significantly decreased | proliferation of BSM cells (BSM cells [3]; COPD BSM cells): increased | doubling time of cell growth (BSM cells [3]; asthmatic BSM cells): had no effect | proliferation of BSM cells (BSM cells [3]; asthmatic BSM cells): had no effect | doubling time of cell growth (BSM cells [3]; control BSM cells): decreased | proliferation of BSM cells (BSM cells [3]; control BSM cells): increased | BrdU incorporation (BSM cells [2]; COPD BSM cells): increased | BrdU incorporation (BSM cells [2]; control BSM cells): increased | PGC-1α and mitochondrial biogenesis (U937, L6, and PC12): activate | proliferation [4]: inhibit | proliferation of endothelial cells (endothelial cells): increased
